The target in assay [1] is T1, R26-GFP (truncated R subunit of cAMP dependent protein kinase (PKA), cAMP binding site A, fused to w7 GFP) (Dictyostelium discoideum, UniProt P05987).
T1 sequence (P05987 1-170): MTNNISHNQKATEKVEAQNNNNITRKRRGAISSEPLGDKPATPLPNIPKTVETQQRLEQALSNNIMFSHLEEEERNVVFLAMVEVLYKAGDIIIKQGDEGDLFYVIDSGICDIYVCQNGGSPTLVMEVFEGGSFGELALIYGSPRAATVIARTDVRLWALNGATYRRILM
As to the kind of experiment: FRET titration and competition for cyclic nucleotide binding to purified R26-GFP. The procedure: Fluorescently labelled cGMP (8-{{2-{(Fluoresceinylthioureido)amino}ethyl}thio} guanosine-3′, 5′-cyclic, Biolog) was added to purified R26-GFP and fluorescence emission recorded while exciting at 433 nm.
In a further experiment, unlabelled cAMP was added in a 5 fold excess over 8-fluo-cGMP.
The concentration of labelled 8-fluo-cGMP was varied while recording fluorescence changes (FIG. 3, inset).
In order to measure the real KD for cAMP, a competition experiment was performed by varying stepwise 8-fluo-cGMP concentration For each 8-fluo-cGMP concentration, increasing concentrations of unlabelled cAMP was added, allowing to calculate the apparent KD for cAMP in each Case (FIG. 4).
For FRET measurements, R-26-GFP was diluted to about 0.1 μM. Excitation was performed at 433 nm, while emission was recorded over a range from 450 to 550 nm in a PTI C60 spectrofluorimeter (Photon Technology International).
Different concentrations of 8-Fluo-cGMP (8-{{2-{(Fluoresecinylthioureido)amino}ethyl}thio} guanosine 3′, 5′-cyclic monophosphate, Biolog) were added as indicated (5 fold excess in FIG. 2, open squares) and emission spectra were recorded again. […] In competition experiments, unlabelled cAMP was added at the indicated concentrations (FIG. 3, 100 μM).

The test system of assay [2] is double GFP-R (R subunit with w7 and S65T GFPs flanking cAMP binding site A). As to conditions: 500 μM cAMP, emission spectrum, excitation 434 nm.
Experimental: The spectral properties of the double GFP-R were determined using a spectrofluorimeter PTI C60 with photomultiplicator. […] The shoulder corresponds to the emission of the w7, whereas the major peak represents S65T emission.
A conformational change could also result simply from the binding of cAMP. The double GFP-R was incubated with increasing concentrations of cAMP.
Emission spectra from 450 to 550 nm were recorded using a fixed excitation at 434 nm with a bandwidth of 8 nm and an integration time between 0.2 and 1 sec (FIG. 6).
In a second experiment, partially purified double GFP-R was incubated in the presence of increasing concentration of cAMP (FIG. 6B).
Assay [3] has as its target mammalian enzymes (PKA regulatory subunit). The settings on record: read-out: KD for cAMP, background section; cited from earlier work.
The target of assay [4] is regulatory subunit of the cAMP dependent protein kinase (PKA) from Dictyostelium (Dictyostelium discoideum, UniProt P05987). As to conditions: read-out: KD for cAMP; Dictyostelium R subunit, background section; cited from earlier work.

Several values for one entry are separate records, joined by “and”; a condition that tells them apart may be missing. Equal values may be shown once. Read-outs that look alike come from different tables or passages of the source.

This is an account of results in patent publication US6573059B1, “Use of the regulatory subunit of the camp dependent protein kinase (PKA) from dictyostelium for camp measurements” (RMF Dictagene S.A., priority 2000, dated 2003).

regulatory subunit of the cAMP dependent protein kinase (PKA) from Dictyostelium, sequence (P05987 whole entry): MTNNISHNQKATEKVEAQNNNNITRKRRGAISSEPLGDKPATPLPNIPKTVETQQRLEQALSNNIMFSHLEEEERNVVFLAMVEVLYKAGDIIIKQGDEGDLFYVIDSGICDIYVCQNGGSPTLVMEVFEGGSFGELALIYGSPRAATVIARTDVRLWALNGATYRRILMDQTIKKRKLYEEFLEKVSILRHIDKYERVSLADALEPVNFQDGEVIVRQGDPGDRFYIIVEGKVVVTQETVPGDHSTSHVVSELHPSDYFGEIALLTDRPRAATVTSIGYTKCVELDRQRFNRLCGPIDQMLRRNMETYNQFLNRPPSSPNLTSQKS

With `Nc1ncnc2c1nc(SCCNC(=S)Nc1ccc3c(c1)C(=O)OC31c3ccc(O)cc3Oc3cc(O)ccc31)n2[C@@H]1O[C@@H]2COP(=O)(O)O[C@H]2[C@H]1O` [8-fluo-cAMP, 8-{{2-{(Fluoresceinylthioureido)amino}ethyl}thio}adenosine-3′,5′-cyclic monophosphate], in assay [1], the Kd was about 4.5 nM.

As for `Nc1nc2c(ncn2[C@@H]2O[C@@H]3COP(=O)(O)O[C@H]3[C@H]2O)c(=O)[nH]1` [cGMP], in assay [1] (reverse competition experiment, read-out: KD for cGMP), the Kd was about 1850 nM.

Regarding `Nc1nc2c(nc(SCCNC(=S)Nc3ccc4c(c3)C(=O)OC43c4ccc(O)cc4Oc4cc(O)ccc43)n2[C@@H]2O[C@@H]3COP(=O)(O)O[C@H]3[C@H]2O)c(=O)[nH]1` [8-fluo-cGMP, 8-{{2-{(Fluoresecinylthioureido)amino}ethyl}thio} guanosine 3′, 5′-cyclic monophosphate], the Kd in assay [1] is about 80 nM.

Take `Nc1ncnc2c1ncn2[C@@H]1O[C@@H]2COP(=O)(O)O[C@H]2[C@H]1O` [cAMP]: the “amplitude change compared to double GFP/R alone” value in assay [2] is recorded as “about 10%”. In addition, the Kd is 20 nM and ~20 nM in assay [1] (true KD for cAMP, competition of unlabelled cAMP with 8-fluo-cGMP, apparent KDs extrapolated to 0); 10 to 30 nM in assay [3]; about 20 nM in assay [4].
